According to US8846653B2, “Delta-tocotrienol treatment and prevention of pancreatic cancer” (University of South Florida, priority 2006, dated 2014):

How the values were obtained:
MiaPaCa-2 cells = assay: MTS assay of MiaPaCa2 cultures, single 50 μM dose; type: cell-based, human; settings: MiaPaCa2, 50 μM
Experimental: MiaPaCa-2 cells were cultured in complete DMEM media containing 10% fetal bovine serum (FBS) and 1% penicillin-streptomycin, and 1% L-glutamine. BxPc-3 pancreatic cancer cells were cultured in complete RPMI media containing 10% fetal bovine serum (FBS), and 1% penicillin-streptomycin, 1% HEPES buffer, 1% sodium pyruvate and 1% L-glutamine HPDE6-C7 cells were cultured in serum-free keratinocyte SFM media. All cells were maintained at 37° C. in a humidified incubator with 5% CO2. The cells were treated with a single 50 μM dose of vehicle (vehicle only, may be a solvent), T3 alpha (alpha tocotrienol), T3 beta (beta tocotrienol), T3 gamma (gamma tocotrienol), T3 delta (delta tocotrienol), T alpha (alpha tocopherol), T beta (beta tocopherol), TS (tocopherol succinate), GG (geranylgeraniol), SA (succinic acid). A control (no treatment) culture was grown alongside the treatments for comparison. […]

[1] = test system: MiaPaCa2 pancreatic cancer cells; assay: Apoptosis by cell death ELISA, 72 hours; type: cell-based, human; settings: MiaPaCa2, 50 μM
Experimental: (§1) FIGS. 38A and B are graphs showing the effect of tocotrienols on pancreatic cancer survival (Trypan Blue and Cell death ELISA). […] T3=tocotrienol, T=tocopherol, vit E=vitamin E succinate, gem=gemcitabine, 5-FU=fluorouracil.
(§2) MIA PaCa2 cells (3×10^3) were plated in 96 well plates and treated the following day with different compositions of tocoperhol, tocotrienol, gemcitabine, or fluorouracil. The cells were harvested 72 hours later and tested using trypan blue assay and cell death ELISA.

[2] = test system: MiaPaCa2 pancreatic cancer cells; assay: Malignant transformation (Soft Agar) colony formation; type: cell-based, human; settings: MiaPaCa2, 50 μM, vs vehicle
Experimental: FIG. 20 is a graph showing the effect of tocotrienols on pancreatic cancer malignant transformation (Soft Agar). […] Bars, SE (n=3). *p<0.001 vs. vehicle. **p<0.02 vs. vehicle. ***p<0.05 vs. vehicle. T=tocopherol, T3=tocotrienol.
MiaPaCa2 cells (3×10^3) were cultured as described in the Examples above, in 96-well plates and treated with 50 μM of different tocopherol or tocotrienol.

[3] = test system: MiaPaCa2 pancreatic cancer cells; assay: Cell death by trypan blue assay, 72 hours; type: cell-based, human; settings: MiaPaCa2, 50 μM
Experimental: as §1, §2

[4] = test system: MiaPaCa2 pancreatic cancer cells; assay: Effect of tocotrienols on pancreatic cancer proliferation (MTT), 72 hours; type: cell-based, human; settings: MiaPaCa2, 40 to 100 μM, vs vehicle
Text: (§3) FIGS. 11A and B are graphs showing the effect of tocotrienols on pancreatic cancer proliferation (MTT). […] Points, means; bars, SE (n=3).

[5] = test system: AsPc1 pancreatic cancer cells; assay: as above; type: cell-based, human; settings: AsPc1, 40 to 100 μM, vs vehicle
Text: as §3

[6] = test system: human pancreatic ductal epithelial cells transformed with oncogenic K-ras (HPDE-K-ras); assay: Proliferation (MTT) of K-ras transformed ductal epithelial cells; type: cell-based; settings: 72 hours
Experimental: FIGS. 36A and B are graphs showing the effect of tocotrienols on Human Pancreatic Ductal Epithelial Kras Transformed cells (MTT). (A) Tocotrienols (10-100 μM) had no effect on the proliferation of normal immortalized human pancreatic ductal epithelial cells at 72 hours. […] Points, means; bars, SE (n=3). *p<0.001 vs. vehicle. # p<0.02 vs. vehicle
The Ras effector pathways Raf-MEK-ERK and PI3 kinase-AKT are important for cell proliferation and survival, respectively. Pancreatic cancer cell lines (MIA PaCa2, SW1990, BXPC3) and HPDE 6C7 cells were treated with 8-tocotrienol (20 μM) and cell lysates were collected and prepared at progressive time intervals as described above. Proteins from lysates were run by SDS PAGE and immunoblotted with the following antibodies: Ras, p-cRaf (ser 338), p-MEK1/2, MEK1/2, pERK 44/42, ERK 44/42 (Cell Signaling) and c-Raf (BD Transduction Laboratories). […] The MIA PaCa2 and SW1990 cells were then tested for AKT inhibition. The cells were treated with δ-tocotrienol (20 μM) for 24 and 48 hours and cell lysates were run by SDS-PAGE and immunoblotted for p-AKT and AKT (Cell Signaling). […] Taken together, the inhibition of downstream effectors of oncogenic Ras signaling by δ-tocotrienol without an effect on Ras protein levels may indicate a negative regulatory role of 8-tocotrienol on the function of oncogenic Ras. The pancreatic ductal epithelial cell proliferative inhibition by δ-tocotrienol was tested to see if it occurs through blocking aberrant signal transduction cascades. Immortalized human pancreatic ductal epithelial cells (HPDE) and human pancreatic ductal epithelial cells that were transformed by stable transfection of a mutated K-ras oncogene (HPDE-K-ras) were used to test the. effect of tocotrienols on the proliferation of HPDE and HPDE-K-ras.

Row | Molecule | rel amt (relative value set to the control) (MiaPaCa-2 cells; 24 hours) | MTS assay result, run 1 (MiaPaCa-2 cells; 24 hours) | MTS assay result, run 2 (MiaPaCa-2 cells; 24 hours) | MTS assay result, run 3 (MiaPaCa-2 cells; 24 hours) | MTS assay result, run 4 (MiaPaCa-2 cells; 24 hours) | MTS assay result, run 5 (MiaPaCa-2 cells; 24 hours) | MTS assay result, run 6 (MiaPaCa-2 cells; 24 hours) | MTS assay result, run 7 (MiaPaCa-2 cells; 24 hours) | MTS assay result, run 8 (MiaPaCa-2 cells; 24 hours) | MTS assay result, run 9 (MiaPaCa-2 cells; 24 hours) | rel amt (relative value set to the control) (MiaPaCa-2 cells; 48 hours) | MTS assay result, run 1 (MiaPaCa-2 cells; 48 hours) | MTS assay result, run 2 (MiaPaCa-2 cells; 48 hours) | MTS assay result, run 3 (MiaPaCa-2 cells; 48 hours) | MTS assay result, run 4 (MiaPaCa-2 cells; 48 hours) | MTS assay result, run 5 (MiaPaCa-2 cells; 48 hours) | MTS assay result, run 6 (MiaPaCa-2 cells; 48 hours) | MTS assay result, run 7 (MiaPaCa-2 cells; 48 hours) | MTS assay result, run 8 (MiaPaCa-2 cells; 48 hours) | MTS assay result, run 9 (MiaPaCa-2 cells; 48 hours) | other results
1 | Cc1c(C)c2c(c(C)c1O)CC[C@@](C)(CCC[C@H](C)CCC[C@H](C)CCCC(C)C)O2 [T alpha, alpha tocopherol] | 111 | 0.249 | 0.25 | 0.253 | 0.207 | 0.253 | 0.238 | 0.27 | 0.254 | 0.247 | 86 | 0.308 | 0.313 | 0.342 | 0.269 | 0.352 | 0.277 | 0.305 | 0.339 | 0.313 | rel amt (relative value set to the control) (MiaPaCa-2 cells; 72 hours): 103; MTS assay result, run 1 (MiaPaCa-2 cells; 72 hours): 0.523; MTS assay result, run 2 (MiaPaCa-2 cells; 72 hours): 0.478; MTS assay result, run 3 (MiaPaCa-2 cells; 72 hours): 0.464; MTS assay result, run 4 (MiaPaCa-2 cells; 72 hours): 0.453; MTS assay result, run 5 (MiaPaCa-2 cells; 72 hours): 0.443; MTS assay result, run 6 (MiaPaCa-2 cells; 72 hours): 0.456; MTS assay result, run 7 (MiaPaCa-2 cells; 72 hours): 0.383; MTS assay result, run 8 (MiaPaCa-2 cells; 72 hours): 0.451; MTS assay result, run 9 (MiaPaCa-2 cells; 72 hours): 0.456; apoptosis (Cell death ELISA) [1]: no effect; malignant transformation (Soft Agar) [2]: no effect; cell death (Trypan Blue) [3]: no effect; proliferation (MTT) [4]: no effect; proliferation (MTT) [5]: no effect
2 | alpha tocotrienol [T3 alpha] | 116 | 0.274 | 0.296 | 0.293 | 0.216 | 0.245 | 0.258 | 0.243 | 0.239 | 0.258 | 93 | 0.336 | 0.325 | 0.343 | 0.327 | 0.39 | 0.376 | 0.322 | 0.286 | 0.338 | rel amt (relative value set to the control) (MiaPaCa-2 cells; 72 hours): 61; MTS assay result, run 1 (MiaPaCa-2 cells; 72 hours): 0.279; MTS assay result, run 2 (MiaPaCa-2 cells; 72 hours): 0.282; MTS assay result, run 3 (MiaPaCa-2 cells; 72 hours): 0.294; MTS assay result, run 4 (MiaPaCa-2 cells; 72 hours): 0.238; MTS assay result, run 5 (MiaPaCa-2 cells; 72 hours): 0.302; MTS assay result, run 6 (MiaPaCa-2 cells; 72 hours): 0.279; MTS assay result, run 7 (MiaPaCa-2 cells; 72 hours): 0.254; MTS assay result, run 8 (MiaPaCa-2 cells; 72 hours): 0.254; MTS assay result, run 9 (MiaPaCa-2 cells; 72 hours): 0.273; apoptosis (Cell death ELISA) [1]: no effect; malignant transformation (Soft Agar) [2]: no effect; cell death (Trypan Blue) [3]: no effect; proliferation (MTT) [6]: no effect; proliferation (MTT) [4]: no effect; proliferation (MTT) [5]: no effect
